Measured values from patent US20250099411A1, “Methods of Treatment of Inflammation Related Conditions Using Pluripotent Anti-Inflammatory and Metabolic Modulators” (Institut Pasteur de Montevideo, priority 2018, published 2025).

Assays:
[1] = system: Nrf2/Keap I-dependent gene expression; test: Nrf2/Keap I-dependent phase two enzyme gene expression (HO-I, GCLM, NQO I qPCR) in Hep G2 cells; format: cell-based; settings: Hep G2, five hours, SANA 0.1 mM, Salicylic Acid 0.2 and 5 mM
Method: FIGS. 6 and 7 show induction of phase two enzymes Nrf2/Keap I-dependent gene expression by SANA but not by SA Hep G2 cells were treated with SANA (0.1 mM) or Salicylic Acid (0.2 and 5 mM) for five hours. mRNA was extracted from the cells and was measured HO-I, GCLM and NQO I gene expression by qPCR.

[2] = system: inflammasome; test: Inflammasome inhibition (IL-lb ELISA) in THP-1 cells differentiated into macrophages, LPS then ATP; format: cell-based, human; settings: for inhibition of the inflammasome (IL-lb), applied with the second signal: together with ATP (5 mM, 45 minutes) after LPS, SANA 0.05-0.25 mM, SA 0.25 mM; for inhibition of the inflammasome (IL-lb), applied with the first signal: together with LPS (250 ng/ml, 3 hs.), then ATP 5 mM 45 minutes, SANA 0.05-0.25, SA 0.25 mM
Method: In FIGS. 8 and 9 show the inhibition of inflammasome in THP-1 cells differentiated into macrophages (PMA 200 nM, 48 hs.) by SANA but not by SA when applied together with the first (FIG. 8) or the second (FIG. 9) signal. In FIG. 8 cells were treated with Salicylic acid (0.25 mM) or SANA (0.05; 0.125 and 0.25) together with LPS stimulation. The cells were stimulated with LPS (250 ng/ml, 3 hs.) and then with ATP (5 mM, 45 minutes). Supernatant was collected and IL-lb measured by ELISA Cell viability was assessed by MTT assay. […] In FIG. 9 THP-1 cells were differentiated into macrophages with PMA (200 nM, 48 hs.). Cells were stimulated with LPS (250 ng/ml, 3 hs.) and then with ATP (5 mM, 45 minutes). Together with ATP treatment, cells were then treated with NAT×ME (10 uM), Salicylic acid (0.25 mM) or SANA (0.05; 0.125 and 0.25 mM). Supernatant was collected and IL-lb secretion was measured by ELISA Cell viability was assessed by the MTT assay.

[3] = Stopped-flow kinetics of the reaction with BME; format: physicochemical; settings: 25° C., triplicate, BME 0.54-2.73 mM, absorbance at 260 nm
Method: In FIG. 2, it is shown that the reaction between SANA and BME was determined to be a second order rate constant. Stopped-flow kinetic measurements were performed using an Rx 2000 stopped flow analyzer (Applied Photophysics). Mixtures of 150 μL NATx0 (25 μM) and solutions of BME at 0.54 mM, 1.09 mM, 1.64 mM, 2.18 mM, and 2.73 mM concentrations.
The reaction was monitored by following the absorbance at 260 nm and plots were fitted to a simple exponential decay function using Originlab software (version 8.0.). The observed pseudo first order constant at each concentration of BME was extracted from the equation and plotted against the concentration of BME. The second rate constant of the reaction is derived from the slope of the curve and was 182±6 M·^1s·^1. All experiments were carried out at 25° C. by triplicate.

[4] = system: 11-lb secretion; test: LPS-induced 11-lb secretion into the peritoneum in vivo
[5] = Glucose tolerance test in HFD obese mice; format: in vivo; settings: mice under HFD up to 7 months, 100 mg/kg gavage every day during four weeks
Method: Mice under HFD for up to 7 months (mean weight around 40 gr.) were treated with SANA (100 mg/kg; gavage) or phosphate buffer (control) every day during four weeks. The glucose tolerance test were run as per well-known standard procedures.

[6] = molecular target: GAPDH (Homo sapiens, UniProt P04406); test: GAPDH activity; format: biochemical
[7] = Skin allograft rejection, male tail skin grafted onto female mice; format: in vivo, C57BL/6 mice; settings: 100 mg/kg oral gavage daily, day -1 to day 15
Method: C57BL/6 female mice were grafted with skin from the tails of C57BL/6 male mice. The skin graft is a small'square (1 cm^2 and it was implanted onto the left subscapular region of the female mice. From one day before the transplantation until 15 days after it, the mice were treated daily with SANA (100 mg/kg, by oral gavage; SANA group) or vehicle (Control group). The vehicle used was a solution of Carboxy-Methyl-cellulose 0.5% m/v and Tween 80 0.5% v/v. At the end of the 15th day of administration, allografts were checked every 48/72 hours to assess the condition of the grafted skin. Rejection was diagnosed clinically when the allograft lost more than 50% of its size and/or more than I 0% of allograft was necrotic.
The study followed the protocol described above for FIG. I, but further included a Salicylate group. C57BL/6 female mice were grafted with skin from the tails of C57BL/6 male mice. The skin graft is a small square (1 cm^2 and it was implanted onto the left subscapular region of the female mice. From one day before the transplantation until 15 days after it, the mice were treated daily with Salicylate (100 mg/kg, by oral gavage; Salicylate group), SANA (100 mg/kg, by oral gavage; SANA group) or vehicle (Control group). The vehicle used was a solution of
Carboxy-Methyl-cellulose 0.5% m/v and Tween 80 0.5% v/v. […]

[8] = Body weight of mice fed a high-fat diet; format: in vivo
Description: (§1) While not wishing to be bound by theory, thermogenesis and weight loss are a result of AMPK activation together with white adipose tissue and mitochondrial uncoupling. […] SANA's beneficial effects also include reducing adverse effects related to obesity. […] FIGS. 22 and 23, compare the body temperatures of mice on normal diets (“ND”), HFD, and HFD with administration of SANA.

[9] = Magnetic resonance imaging (MRI) of fat content; format: in vivo; settings: mice
Description: as §1

[10] = Thermogenesis / body temperature of mice on HFD; format: in vivo
Description: as §1

[11] = Thermogenesis and weight loss in mice on a normal diet; format: in vivo
Description: as §1

Sequence of GAPDH (P04406 whole entry, species assumed): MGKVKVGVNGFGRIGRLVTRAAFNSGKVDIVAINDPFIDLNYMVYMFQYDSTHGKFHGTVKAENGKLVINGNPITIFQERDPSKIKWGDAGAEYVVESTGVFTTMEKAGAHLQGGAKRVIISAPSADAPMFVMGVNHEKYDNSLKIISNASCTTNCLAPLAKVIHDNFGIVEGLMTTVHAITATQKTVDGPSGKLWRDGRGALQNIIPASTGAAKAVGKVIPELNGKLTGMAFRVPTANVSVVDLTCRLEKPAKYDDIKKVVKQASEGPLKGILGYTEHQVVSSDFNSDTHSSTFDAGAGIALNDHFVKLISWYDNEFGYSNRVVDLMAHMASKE

Row | SMILES | induction of phase two enzymes Nrf2/Keap I-dependent gene expression [1] | inhibition of the inflammasome (IL-lb), applied with the second signal [2] | inhibition of the inflammasome (IL-lb), applied with the first signal [2] | second rate constant of the reaction with BME [3] [M·^1s·^1] | LPS-induced 11-lb secretion into the peritoneum [4] | insulin resistance (glucose tolerance test) [5] | GAPDH activity [6] | skin allograft rejection compared to salicylic acid [7] | survival of grafted skin versus control group [7] | rate of weight gain ([8]; mice fed high-fat diet, 29 weeks) | dose dependence of the effect on obesity ([8]; mouse, in vivo) | fat content (MRI) [9] | body temperature ([10]; HFD with SANA versus ND mice and HFD mice) | thermogenesis ([10]; mouse, in vivo) | thermogenesis [11] | weight loss [11]
1 | O=C(O)c1ccccc1O [SA, salicylic acid, reference compound] | not by SA | cannot inhibit | cannot inhibit |  |  |  |  |  |  |  |  |  |  |  |  | 
2 | O=C(O)c1cc(/C=C/[N+](=O)[O-])ccc1O [SANA, 2-hydroxy-5-(2-nitroethenyl)benzoic acid] | induction | potent inhibitor | potent inhibitor | 182±6 | decreases | reverses insulin resistance | does not inhibit | significant reduction in skin allograft rejection | prolonged survival of grafted skin | reduced the rate of weight gain | dose response effect | induces loss of fat content | higher body temperatures than that of ND mice and HFD mice | inducing thermogenesis | does not induce | does not induce
